Several values for one entry are separate records, joined by “and”; a condition that tells them apart may be missing. Equal values may be shown once. Toxic doses and inconclusive results are not listed.
Tested on: B6C3F1 mice, Lewis lung carcinoma iv, survival T/C
Test: NCI In Vivo Anticancer Drug Screen. Data for tumor model Lewis Lung Carcinoma (intravenous) in B6C3F1 mice
Details: endpoint: median survival time, schedule: Q01DX009 (ip), higher = longer survival
How it was run: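 Antitumor activity is assessed in tumor-bearing mice by comparing survival after compound treatment against vehicle-treated controls, reported as a T/C ratio.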

[1] = dose: 25.0 mg/kg/injection, vehicle: saline with Tween-80
[2] = dose: 50.0 mg/kg/injection, vehicle: saline with Tween-80
[3] = dose: 100.0 mg/kg/injection, vehicle: saline with Tween-80
[4] = dose: 200.0 mg/kg/injection, vehicle: saline with Tween-80
[5] = dose: 400.0 mg/kg/injection, vehicle: saline with Tween-80
[6] = dose: 25.0 mg/kg/injection, vehicle: saline
[7] = dose: 50.0 mg/kg/injection, vehicle: saline

C1CN1c1nc(N2CC2)nc(N2CC2)n1
T/C (dose: 0.06 mg/kg/injection, vehicle: suspension in saline): 96 % of control | T/C (dose: 0.12 mg/kg/injection, vehicle: suspension in saline): 92 % of control | T/C (dose: 0.25 mg/kg/injection, vehicle: suspension in saline): 101 % of control | T/C (dose: 0.5 mg/kg/injection, vehicle: suspension in saline): 106 % of control | T/C (dose: 1.0 mg/kg/injection, vehicle: suspension in saline): 121 % of control

CCCCCCCCCCCCCCCCCCOCC(COP(=O)([O-])OCC[N+](C)(C)C)OC (stereo unspecified)
T/C (dose: 6.25 mg/kg/injection, vehicle: suspension in saline): 96 % of control | T/C (dose: 12.5 mg/kg/injection, vehicle: suspension in saline): 99 % of control | T/C (dose: 25.0 mg/kg/injection, vehicle: suspension in saline): 100 % of control

C[C@@]1(CO)[C@H](O)CC[C@@]2(C)[C@H]1CC[C@H]1C[C@@H]3C[C@@]12CC[C@@]3(O)COC(=O)CN
T/C (dose: 0.2 mg/kg/injection, vehicle: saline + alcohol): 107 % of control | T/C (dose: 0.4 mg/kg/injection, vehicle: saline + alcohol): 109 % of control | T/C (dose: 0.8 mg/kg/injection, vehicle: saline + alcohol): 103 % of control | T/C (dose: 1.6 mg/kg/injection, vehicle: saline + alcohol): 103 % of control | T/C (dose: 12.5 micrograms/kg/injection, vehicle: saline + alcohol): 113 % of control | T/C (dose: 25.0 micrograms/kg/injection, vehicle: saline + alcohol): 120 % of control | T/C (dose: 50.0 micrograms/kg/injection, vehicle: saline + alcohol): 102 % of control | T/C (dose: 100.0 micrograms/kg/injection, vehicle: saline + alcohol): 95 % of control | T/C (dose: 200.0 micrograms/kg/injection, vehicle: saline + alcohol): 98 % of control

CCCCc1ccc2nc(NC(=O)OC)[nH]c2c1
T/C (dose: 6.25 mg/kg/injection, vehicle: saline with Tween-80): 111 % of control | T/C (dose: 12.5 mg/kg/injection, vehicle: saline with Tween-80): 97 % of control | T/C [1]: 95 % of control | T/C [2]: 95 % of control | T/C [3]: 111 % of control

O=C1SC(c2ccccc2)=S=C1c1ccccc1
T/C [1]: 100 % of control | T/C [2]: 93 % of control | T/C [3]: 95 % of control | T/C [4]: 104 % of control | T/C [5]: 108 % of control

CN1N=C(N)c2cn(C3OC(COP(=O)(O)O)C(O)C3O)c3ncnc1c23 (stereo unspecified)
T/C (dose: 6.25 mg/kg/injection, vehicle: water): 98 % of control

CC(=O)O[C@@H]1CO[C@H]2O[C@H]3[C@@H](C(C=O)=C[C@H](O)[C@@H]4C5=C(C(C)C)CC[C@]5(C)CC[C@@]34C)[C@@]2(O)C1=O
T/C (dose: 0.75 mg/kg/injection, vehicle: Klucel (hydroxypropylcellulose) (HPC)): 103 % of control | T/C (dose: 1.5 mg/kg/injection, vehicle: Klucel (hydroxypropylcellulose) (HPC)): 98 % of control | T/C (dose: 3.0 mg/kg/injection, vehicle: Klucel (hydroxypropylcellulose) (HPC)): 100 % of control

Cn1/c2cc/c1=C(\c1ccc(S(=O)(=O)O)cc1)c1ccc([n-]1)/C(c1ccc(S(=O)(=O)O)cc1)=c1/cc/c([nH]1)=C(\c1ccc(S(=O)(=O)O)cc1)c1ccc([n-]1)/C=2c1ccc(S(=O)(=O)O)cc1.O.O=S(=O)(O)C(F)(F)F.[Cu+2]
T/C (dose: 6.25 mg/kg/injection, vehicle: saline): 109 % of control | T/C (dose: 12.5 mg/kg/injection, vehicle: saline): 112 % of control | T/C [6]: 116 % of control | T/C [7]: 112 % of control

CC(=O)Nc1cscc1NC(C)=O
T/C [1]: 103 % of control | T/C [2]: 101 % of control and 106 % of control | T/C [3]: 98 % of control | T/C [4]: 94 % of control and 108 % of control | T/C [5]: 112 % of control and 88 % of control

O=C(NO)c1ccc(O)c(O)c1
T/C [6]: 100 % of control | T/C [7]: 98 % of control | T/C (dose: 50.0 mg/kg/injection, vehicle: suspension in saline): 98 % of control | T/C (dose: 100.0 mg/kg/injection, vehicle: saline): 101 % of control | T/C (dose: 100.0 mg/kg/injection, vehicle: suspension in saline): 110 % of control | T/C (dose: 200.0 mg/kg/injection, vehicle: saline): 100 % of control | T/C (dose: 200.0 mg/kg/injection, vehicle: suspension in saline): 118 % of control | T/C (dose: 400.0 mg/kg/injection, vehicle: saline): 158 % of control | T/C (dose: 400.0 mg/kg/injection, vehicle: suspension in saline): 124 % of control

Cc1cc(NCCCN(C)C)c2ccc3c(ccc4c(NCCCN(C)C)cc(C)nc43)c2n1
T/C (dose: 0.19 mg/kg/injection, vehicle: saline with Tween-80): 101 % of control | T/C (dose: 0.39 mg/kg/injection, vehicle: saline with Tween-80): 109 % of control | T/C (dose: 0.78 mg/kg/injection, vehicle: saline with Tween-80): 100 % of control | T/C (dose: 1.56 mg/kg/injection, vehicle: saline with Tween-80): 95 % of control | T/C (dose: 3.12 mg/kg/injection, vehicle: saline with Tween-80): 100 % of control | T/C (dose: 3.12 mg/kg/injection, vehicle: saline): 109 % of control

NC(=O)c1c[se]c(C2OC(CO)C(O)C2O)n1 (stereo unspecified)
T/C (dose: 0.75 mg/kg/injection, vehicle: water): 107 % of control | T/C (dose: 1.5 mg/kg/injection, vehicle: water): 110 % of control | T/C (dose: 3.0 mg/kg/injection, vehicle: water): 152 % of control and 153 % of control | T/C (dose: 6.0 mg/kg/injection, vehicle: water): 297 % of control | T/C (dose: 12.0 mg/kg/injection, vehicle: water): 297 % of control and 355 % of control | T/C (dose: 13.0 mg/kg/injection, vehicle: water): 315 % of control | T/C (dose: 24.0 mg/kg/injection, vehicle: water): 297 % of control | T/C (dose: 25.0 mg/kg/injection, vehicle: water): 355 % of control | T/C (dose: 33.0 mg/kg/injection, vehicle: water): 94 % of control | T/C (dose: 75.0 mg/kg/injection, vehicle: water): 315 % of control | T/C (dose: 100.0 mg/kg/injection, vehicle: water): 120 % of control

CN(C)C1C(=O)C(C(=O)NP(=O)(NCCCO)N(CCCl)CCCl)=C(O)C2(O)C(=O)C3=C(O)c4c(O)cccc4C(C)(O)C3CC12 (stereo unspecified)
T/C [1]: 104 % of control | T/C [2]: 119 % of control | T/C [3]: 93 % of control

NC(=O)CC(N)C(=O)O (stereo unspecified)
T/C (dose: 50.0 mg/kg/injection, vehicle: other): 95 % of control | T/C [2]: 102 % of control | T/C (dose: 100.0 mg/kg/injection, vehicle: other): 110 % of control | T/C [3]: 96 % of control | T/C (dose: 200.0 mg/kg/injection, vehicle: other): 97 % of control | T/C [4]: 96 % of control | T/C (dose: 400.0 mg/kg/injection, vehicle: other): 92 % of control | T/C [5]: 97 % of control | T/C (dose: 800.0 mg/kg/injection, vehicle: other): 104 % of control | T/C (dose: 800.0 mg/kg/injection, vehicle: saline with Tween-80): 100 % of control | T/C (dose: 1600.0 mg/kg/injection, vehicle: other): 99 % of control | T/C (dose: 1600.0 mg/kg/injection, vehicle: saline with Tween-80): 96 % of control

From PubChem BioAssay AID276 (DTP/NCI, 2004)
